From ChEMBL document CHEMBL5120815, “Synthesis of novel dual target inhibitors of PARP and EGFR and their antitumor activities in triple negative breast cancers” (Bioorg Med Chem, 2022)
Active and inactive are the calls of the source. The calls are words filed in the database; no cut-off is given here.

Assays:
MCF7 [1] = test: Potentiation of adriamycin-induced cytotoxicity in human MCF7 cells harbouring wild type BRCA1/2 assessed as inhibition of cell growth at 17.5 uM incubated for 48 hrs in presence of 0.8 uM adriamycin by MTT assay relative to control; assay type: functional
SK-BR-3 = test: Cytotoxicity against human SK-BR-3 cells harbouring wild type BRCA1/2 assessed as inhibition of cell growth incubated for 48 hrs by MTT assay; assay type: functional, cell-based; conditions: SK-BR-3, 48 h
MDA-MB-231 = test: Cytotoxicity against human MDA-MB-231 cells assessed as inhibition of cell growth incubated for 48 hrs by MTT assay; assay type: functional, cell-based; conditions: MDA-MB-231, 48 h
HCC1937 = test: Cytotoxicity against human HCC1937 cells assessed as inhibition of cell growth incubated for 48 hrs by MTT assay; assay type: functional, cell-based; conditions: HCC1937, 48 h
MCF7 [2] = test: Synergistic cytotoxicity against human MCF7 cells harbouring wild type BRCA1/2 assessed as combination index at 17.5 uM incubated for 48 hrs in presence of 0.8 uM adriamycin by MTT assay; assay type: functional
MX1 = test: Cytotoxicity against human MX1 cells harbouring BRCA1 mutant assessed as inhibition of cell growth incubated for 48 hrs by MTT assay; assay type: functional, cell-based; conditions: MX1, 48 h
MCF7 [3] = test: Cytotoxicity against human MCF7 cells harbouring wild type BRCA1/2 assessed as inhibition of cell growth at 17.5 uM incubated for 48 hrs by MTT assay relative to control; assay type: functional
MCF7 [4] = test: Cytotoxicity against human MCF7 cells harbouring wild type BRCA1/2 assessed as inhibition of cell growth incubated for 48 hrs by MTT assay; assay type: functional, cell-based; conditions: MCF7, 48 h
MDA-MB-468 = test: Cytotoxicity against human MDA-MB-468 cells assessed as inhibition of cell growth incubated for 48 hrs by MTT assay; assay type: functional, cell-based; conditions: MDA-MB-468, 48 h
MCF7 [5] = test: Cytotoxicity against human MCF7 cells harbouring wild type BRCA1/2 assessed as inhibition of cell growth at 25 uM incubated for 48 hrs by MTT assay relative to control; assay type: functional
MCF7 [6] = test: Potentiation of adriamycin-induced cytotoxicity in human MCF7 cells harbouring wild type BRCA1/2 assessed as inhibition of cell growth at 25 uM incubated for 48 hrs in presence of 0.8 uM adriamycin by MTT assay relative to control; assay type: functional
MCF7 [7] = test: Synergistic cytotoxicity against human MCF7 cells harbouring wild type BRCA1/2 assessed as combination index at 25 uM incubated for 48 hrs in presence of 0.8 uM adriamycin by MTT assay; assay type: functional
MCF7 [8] = test: Synergistic cytotoxicity against human MCF7 cells harbouring wild type BRCA1/2 assessed as combination index at 10 uM incubated for 48 hrs in presence of 0.8 uM adriamycin by MTT assay; assay type: functional
MCF7 [9] = test: Potentiation of adriamycin-induced cytotoxicity in human MCF7 cells harbouring wild type BRCA1/2 assessed as inhibition of cell growth at 10 uM incubated for 48 hrs in presence of 0.8 uM adriamycin by MTT assay relative to control; assay type: functional
MCF7 [10] = test: Cytotoxicity against human MCF7 cells harbouring wild type BRCA1/2 assessed as inhibition of cell growth at 10 uM incubated for 48 hrs by MTT assay relative to control; assay type: functional
[11] = biological target: Poly [ADP-ribose] polymerase 1 (Homo sapiens) (UniProt P09874); test: Inhibition of PARP-1 in human MCF7 cells assessed as inhibition of PARylation by measuring reduction in PARP protein expression at 1 uM pretreated with adriamycin followed by compound addition and measured after 48 hrs by Western bot analysis; assay type: cell-based
Sequence of Poly [ADP-ribose] polymerase 1 (Homo sapiens) (P09874 whole entry): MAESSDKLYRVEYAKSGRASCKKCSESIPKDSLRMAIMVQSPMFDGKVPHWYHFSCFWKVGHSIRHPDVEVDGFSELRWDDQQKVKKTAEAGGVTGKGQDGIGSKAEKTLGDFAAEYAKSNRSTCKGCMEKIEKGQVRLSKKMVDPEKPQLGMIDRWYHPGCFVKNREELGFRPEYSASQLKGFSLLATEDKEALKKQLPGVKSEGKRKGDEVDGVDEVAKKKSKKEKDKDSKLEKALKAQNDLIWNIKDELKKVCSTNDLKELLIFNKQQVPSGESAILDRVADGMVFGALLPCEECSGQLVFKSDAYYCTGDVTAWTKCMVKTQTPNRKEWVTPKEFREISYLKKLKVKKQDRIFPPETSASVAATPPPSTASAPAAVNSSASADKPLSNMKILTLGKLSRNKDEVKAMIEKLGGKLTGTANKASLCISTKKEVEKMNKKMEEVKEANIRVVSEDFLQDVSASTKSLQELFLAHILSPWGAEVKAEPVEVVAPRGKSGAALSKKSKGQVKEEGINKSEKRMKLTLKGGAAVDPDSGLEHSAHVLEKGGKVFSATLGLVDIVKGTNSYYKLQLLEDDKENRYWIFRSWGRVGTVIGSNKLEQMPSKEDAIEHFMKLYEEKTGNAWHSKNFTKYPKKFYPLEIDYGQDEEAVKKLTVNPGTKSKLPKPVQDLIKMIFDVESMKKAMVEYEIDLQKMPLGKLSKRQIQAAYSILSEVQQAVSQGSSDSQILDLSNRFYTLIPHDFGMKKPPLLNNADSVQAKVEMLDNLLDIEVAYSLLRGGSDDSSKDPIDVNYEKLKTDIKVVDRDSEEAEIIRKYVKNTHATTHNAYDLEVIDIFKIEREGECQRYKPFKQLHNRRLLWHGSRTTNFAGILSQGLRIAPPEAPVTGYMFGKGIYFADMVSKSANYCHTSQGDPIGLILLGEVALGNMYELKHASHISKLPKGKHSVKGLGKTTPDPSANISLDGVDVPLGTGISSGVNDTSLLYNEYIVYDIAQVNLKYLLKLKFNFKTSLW

[12] = biological target: Epidermal growth factor receptor (Homo sapiens) (UniProt P00533); test: Inhibition of human EGFR in human HCC1937 cells assessed as reduction in phosphorylated EGFR level at 10 uM incubated for 48 hrs by Western blot analysis; assay type: cell-based
Sequence of Epidermal growth factor receptor (Homo sapiens) (P00533 whole entry): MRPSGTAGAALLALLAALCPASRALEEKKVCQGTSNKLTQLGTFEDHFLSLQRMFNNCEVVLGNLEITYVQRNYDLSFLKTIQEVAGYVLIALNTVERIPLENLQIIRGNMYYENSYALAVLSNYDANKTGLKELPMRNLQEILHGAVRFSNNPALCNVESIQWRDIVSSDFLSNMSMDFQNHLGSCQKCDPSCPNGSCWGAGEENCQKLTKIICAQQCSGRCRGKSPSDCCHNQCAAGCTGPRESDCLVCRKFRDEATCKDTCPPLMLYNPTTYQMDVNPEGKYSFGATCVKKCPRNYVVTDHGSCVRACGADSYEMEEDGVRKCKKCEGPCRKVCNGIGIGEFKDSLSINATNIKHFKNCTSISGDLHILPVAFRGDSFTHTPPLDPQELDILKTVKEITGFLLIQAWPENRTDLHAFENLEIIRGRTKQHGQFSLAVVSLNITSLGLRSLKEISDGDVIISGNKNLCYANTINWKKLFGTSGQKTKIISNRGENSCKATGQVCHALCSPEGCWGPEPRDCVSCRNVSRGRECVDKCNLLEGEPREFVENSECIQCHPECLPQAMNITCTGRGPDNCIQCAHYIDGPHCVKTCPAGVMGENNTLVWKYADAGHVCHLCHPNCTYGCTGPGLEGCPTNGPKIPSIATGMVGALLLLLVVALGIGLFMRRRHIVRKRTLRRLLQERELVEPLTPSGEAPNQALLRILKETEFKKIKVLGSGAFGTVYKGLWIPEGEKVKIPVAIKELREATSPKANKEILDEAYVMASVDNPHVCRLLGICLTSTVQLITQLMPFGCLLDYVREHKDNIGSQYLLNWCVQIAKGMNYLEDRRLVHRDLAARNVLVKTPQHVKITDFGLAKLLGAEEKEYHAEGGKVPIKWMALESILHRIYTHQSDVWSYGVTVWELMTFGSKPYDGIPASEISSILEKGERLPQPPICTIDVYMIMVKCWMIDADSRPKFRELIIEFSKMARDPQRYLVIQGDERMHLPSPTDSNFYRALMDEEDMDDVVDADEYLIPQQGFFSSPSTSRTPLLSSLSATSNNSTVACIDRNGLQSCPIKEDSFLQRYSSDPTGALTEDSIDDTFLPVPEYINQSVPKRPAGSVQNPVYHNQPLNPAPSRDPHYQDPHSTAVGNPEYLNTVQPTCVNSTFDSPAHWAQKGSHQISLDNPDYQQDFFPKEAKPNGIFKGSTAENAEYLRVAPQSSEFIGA

[13] = biological target: Epidermal growth factor receptor (Homo sapiens) (UniProt P00533); test: Inhibition of human EGFR in human HCC1937 cells assessed as reduction in EGFR level at 10 uM incubated for 48 hrs by Western blot analysis; assay type: cell-based
[14] = biological target: Poly [ADP-ribose] polymerase 1 (Homo sapiens) (UniProt P09874); test: Inhibition of PARP-1 (unknown origin) at 0.1 uM preincubated for 10 mins followed by PARP cocktail addition and measured after 60 mins by colorimetric assay relative to control; conditions: time 70.0 min

Row | SMILES | inhibition at 17.5 µM (MCF7 [1]) [%] | IC50 (SK-BR-3) [µM] | IC50 (MDA-MB-231) [µM] | IC50 (HCC1937) [µM] | CI (MCF7 [2]) | IC50 (MX1) [µM] | inhibition at 17.5 µM (MCF7 [3]) [%] | IC50 (MCF7 [4]) [µM] | IC50 (MDA-MB-468) [µM] | inhibition at 25 µM (MCF7 [5]) [%] | inhibition at 25 µM (MCF7 [6]) [%] | CI (MCF7 [7]) | CI (MCF7 [8]) | inhibition at 10 µM (MCF7 [9]) [%] | inhibition at 10 µM (MCF7 [10]) [%] | inhibition [11] | inhibition [12] | inhibition [13] | inhibition [14] [%]
1 | O=C(c1cc(Cc2n[nH]c(=O)c3ccccc23)ccc1F)N1CCc2nc(N3CCCCC3)ncc2C1 | 43 | 24.5 | > 200 | > 200 | 0.44 | 22.7 | 18.9 | 89.8 |  |  |  |  |  |  |  |  |  |  | 
2 | O=C(c1cc(Cc2n[nH]c(=O)c3ccccc23)ccc1F)N1CCN(C(=O)C2CC2)CC1 [OLAPARIB] |  |  | > 200 | > 200 |  |  |  | 409 | 200 | 23.5 | 27.9 | 0.88 |  |  |  |  |  |  | 
3 | CCN(CC)c1ncc2c(n1)CCN(C(=O)c1cc(Cc3n[nH]c(=O)c4ccccc34)ccc1F)C2 |  | > 200 | > 200 | 66.8 |  | 28.4 |  | 55.8 |  |  |  |  | 0.82 | 37.5 | 21.6 |  |  |  | 
4 | CCN1CCN(c2ncc3c(n2)CCN(C(=O)c2cc(Cc4n[nH]c(=O)c5ccccc45)ccc2F)C3)CC1 |  | > 200 | > 200 | 137 |  | 88.8 |  | 90.1 |  | 9.13 | 45.7 | 0.2 |  |  |  |  |  |  | 
5 | O=C(c1cc(Cc2n[nH]c(=O)c3ccccc23)ccc1F)N1CCc2nc(N3CCOCC3)ncc2C1 |  | 50 | > 200 | 3.23 |  | 18.7 |  | 199 | 15.6 | 18.6 | 47.8 | 0.39 |  |  |  | Active | Active | Active | 92.1
6 | CCCCN(CCCC)c1ncc2c(n1)CCN(C(=O)c1cc(Cc3n[nH]c(=O)c4ccccc34)ccc1F)C2 |  | 21.2 | > 200 | > 200 |  | 13.3 |  | 106 |  | 27.4 | 39.6 | 0.79 |  |  |  |  |  |  | 
7 | CN1CCN(c2ncc3c(n2)CCN(C(=O)c2cc(Cc4n[nH]c(=O)c5ccccc45)ccc2F)C3)CC1 |  | 95.7 | > 200 | 53.4 |  | 46.3 |  | 72.8 |  | 37.4 | 55.8 | 0.67 |  |  |  |  |  |  | 
8 | CCCN(CCC)c1ncc2c(n1)CCN(C(=O)c1cc(Cc3n[nH]c(=O)c4ccccc34)ccc1F)C2 |  | > 200 | > 200 | 20.3 |  | 92.9 |  | 126 |  | 11.9 | 36.6 | 0.36 |  |  |  |  |  |  | 
9 | O=C(c1cc(Cc2n[nH]c(=O)c3ccccc23)ccc1F)N1CCc2nc(N3CCCC3)ncc2C1 |  | > 200 | > 200 | 7.81 |  | 77 |  | 144 |  | 24.9 | 40.9 | 0.61 |  |  |  |  |  |  | 
10 | CN(C)CCN(C)c1ncc2c(n1)CCN(C(=O)c1cc(Cc3n[nH]c(=O)c4ccccc34)ccc1F)C2 |  | > 200 | > 200 | > 200 |  | 66.9 |  | 122 |  | 24.6 | 43.9 | 0.86 |  |  |  |  |  |  | 
